Results on 1 compound are retold here after PMC8121435, “Cork-in-bottle mechanism of inhibitor binding to mammalian complex I” (Science Advances, 2021).

Holding throughout (format): biochemical
The target in experiment [1] is T1, complex I in bacterial membranes (Paracoccus denitrificans, UniProt P29916+P29918+P29920).
T1 construct: Complex I was purified from P. denitrificans strain Pd1222; endogenous in cells; host or cells: P. denitrificans strain Pd1222
The experiment is described as follows: NADH oxidation in P. denitrificans bacterial membranes. The settings on record: P. denitrificans membranes 20 μg ml−1. Here is the method: All catalytic activity assays were conducted at 32°C in 96-well plates using a Molecular Devices Spectramax 384 plus plate reader. Catalysis was initiated by addition of 200 μM NADH and monitored at 340 and 380 nm (ε340–380 = 4.81 mM^−1 cm^−1). Linear rates were measured for all assays, inhibitors were added from dimethyl sulfoxide stock solutions as required, and inhibitor-insensitive rates (using either 1 μM piericidin A or 1.4 μM IACS-2858) were subtracted from each measured rate. Membrane samples were prepared as described previously ([17], [20], [59], [60]), diluted to 20 μg ml^−1 in 10 mM tris-SO4 (pH 7.5) and 250 mM sucrose, and supplemented with 3 μM horse heart cytochrome c (except for P. denitrificans, for which the activity is unaffected by the addition). Mouse, bovine, and yeast (Y. lipolytica) complex I were purified as described previously ([17], [20], [59]); diluted to 0.5 nM in 20 mM tris-HCl (pH 7.5), 0.15% asolectin, and 0.15% CHAPS; and assayed using either 200 μM dQ or 200 μM ubiquinone-1 (Sigma-Aldrich). Complex I was purified from P. denitrificans strain Pd1222 ([61]) and provided by O. D. Jarman (MRC Mitochondrial Biology Unit, University of Cambridge); it was assayed likewise but in 10 mM MES-HCl (pH 6.5), 25 mM NaCl, and 2 mM CaCl2. […]

The next experiment has as its target T2, complex I in bovine SMPs (Bos taurus, UniProt P03887+P17694+P42026).
T2 construct: Complex I from bovine heart were prepared; from tissue; host or cells: bovine heart mitochondria
The experiment is described as follows: Reverse electron transport (succinate oxidation-driven NAD+ reduction) in bovine heart submitochondrial particles. Here is the method:
All catalytic activity assays were conducted at 32°C in 96-well plates using a Molecular Devices Spectramax 384 plus plate reader. Catalysis was initiated by addition of 200 μM NADH and monitored at 340 and 380 nm (ε340–380 = 4.81 mM^−1 cm^−1). Linear rates were measured for all assays, inhibitors were added from dimethyl sulfoxide stock solutions as required, and inhibitor-insensitive rates (using either 1 μM piericidin A or 1.4 μM IACS-2858) were subtracted from each measured rate. Membrane samples were prepared as described previously ([17], [20], [59], [60]), diluted to 20 μg ml^−1 in 10 mM tris-SO4 (pH 7.5) and 250 mM sucrose, and supplemented with 3 μM horse heart cytochrome c (except for P. denitrificans, for which the activity is unaffected by the addition). Mouse, bovine, and yeast (Y. lipolytica) complex I were purified as described previously ([17], [20], [59]); diluted to 0.5 nM in 20 mM tris-HCl (pH 7.5), 0.15% asolectin, and 0.15% CHAPS; and assayed using either 200 μM dQ or 200 μM ubiquinone-1 (Sigma-Aldrich). Complex I was purified from P. denitrificans strain Pd1222 ([61]) and provided by O. D. Jarman (MRC Mitochondrial Biology Unit, University of Cambridge); it was assayed likewise but in 10 mM MES-HCl (pH 6.5), 25 mM NaCl, and 2 mM CaCl2. Bovine SMPs were prepared as described previously ([61]) and diluted to 20 μg ml^−1 in 10 mM tris-SO4 (pH 7.5) and 250 mM sucrose for FET and RET assays. The RET assay was initiated using 1 mM NAD^+, 1 mM ATP, 10 mM succinate, 1 mM cyanide, and 2 mM MgSO4, in the absence of NADH. AOX from Trypanosoma brucei brucei was prepared as described previously ([23]). Complex I proteoliposomes were assayed using 10 mM Mops-KOH (pH 7.5), 50 mM KCl, and AOX (10 μg ml^−1).

Another experiment has as its target T3, bovine complex I (Bos taurus, UniProt P03887+P17694+P42026).
T3 construct: Complex I from bovine heart were prepared; from tissue; host or cells: bovine heart mitochondria
The experiment is described as follows: Inhibition kinetics in bovine complex I proteoliposomes with ubiquinone-10 and AOX. The settings on record: versus ubiquinone-10, reciprocal plots and kinetic modelling. The procedure: Complex I from bovine heart were prepared and used to make proteoliposomes as described previously ([17], [23], [58]). Briefly, liposomes were formed from 8 mg of phosphatidylcholine, 1 mg of phosphatidylethanolamine, and 1 mg of cardiolipin (bovine heart extracts from Avanti Polar Lipids), together with varying amounts of ubiquinone-10 (Sigma-Aldrich), in ~800 μl of 10 mM 3-morpholinopropane-1-sulfonic acid (Mops)-KOH (pH 7.5) and 50 mM KCl. Following extrusion through a 100 nm of Nuclepore polycarbonate membrane (Whatman), the liposomes were partially solubilized with 0.5% sodium cholate (Anatrace), and 0.2 mg of complex I was added for reconstitution. […] Complex I concentration and orientation were quantified using the NADH:APAD^+ activity assay as described previously ([17], [23], [58]). Phospholipid phase volumes were calculated as described previously ([17], [23], [58]) to determine the amount of phospholipid present and by assuming that 1 mg of phospholipid occupies ∼1 μl. Ubiquinone-10 contents were quantified by HPLC, by reference to a set of standard samples, using a Nucleosil 100-5C18 column and a Dionex Ultimate 3000 RS electrochemical detector as described previously ([17], [23], [58]). […] All catalytic activity assays were conducted at 32°C in 96-well plates using a Molecular Devices Spectramax 384 plus plate reader. […]

On to `CS(=O)(=O)C1CCN(c2cccc(Cn3cc(-c4nc(-c5ccc(OC(F)(F)F)cc5)no4)ccc3=O)c2)CC1` [IACS-2858, 1-(3-(4-(Methylsulfonyl)piperidin-1-yl)benzyl)-5-(3-(4-(trifluoromethoxy)phenyl)-1,2,4-oxadiazol-5-yl)pyridin-2(1H)-one], for which the half-maximal inhibitory concentration (IC50) in experiment [1] was about 61 µM; on complex I in bovine SMPs (bovine SMPs, succinate oxidation-driven NAD+ reduction rate, ± SE), 3.1 ± 0.1 nM. Also, the “inhibition of RET favoured over FET” value against complex I in bovine SMPs (bovine heart SMPs, RET versus FET) is listed as over 2 fold. Besides, the mode of inhibition entry at bovine complex I is “competitive”.
